Source: patent US6277364A, “Polyurethanes as topical skin protectants” (Bertek Pharmaceuticals, Inc., priority 1998, dated 2001)
≈ marks a conversion by molar mass, not a printed value.

Legend:
[1] = in vivo
Description: In this example, the FTIR-ATR technique was used to assess the presence and amount of polyolprepolymer-2 ("PP-2") in the stratum corneum of two human subjects, in vivo.
The test solution contained 10 wt % PP-2 dissolved in ethanol/water (60:40 v/v). the control solution consisted only of ethanol/water (60:40 v/v). Webtril™ pads (12cm×2.5cm) were saturated either with test or control solution and were applied to the left and right forearms of two subjects, respectively. The pads were secured in place with Tegaderm 1626™ occlusive transparent dressing during the entire 3 hour exposure period. The skin surface of the dosing sites was lightly wiped with two cotton-tipped swabs following the exposure period. A total of 8 tape strippings were performed: 6 were done immediately and 2 were done 2 hours later. […]
FTIR spectra of the stratum comeum was measured from the dosing site and compared with the FTIR spectra of PP-2. The ratio of PP-2 absorption at 1095 cm^-1 to stratum corneum absorption at 675 cm^-1 (R 1095/675) was determined to account for potential differences in degree of contact between the sample (forearm) and the ATR crystal. […]
The absorbance ratio, R 1095/675, of PP-2 was determined. The quantity εb was computed, based upon the known surface concentration of PP-2 and using Beer's Law (A=εbC). […]

physchem = settings: water

Compound | localization in skin [1] | solubility (physchem)
poly[oxy(methyl-1,2-ethanediyl)], α-hydro-ω-hydroxy-, polymer with 1,1'-methylene-bis-[4-isocyanatocyclohexane] [PP-2] | localized in the stratum corneum | –
O=c1[nH]cc(F)c(=O)[nH]1 [5-FU, 5-fluorouracil] | – | 10.2 mg/mL (≈ 78.4 mM)
